Five molecules from paper PMC3145970, “Specific CLK Inhibitors from a Novel Chemotype for Regulation of Alternative Splicing” (Chemistry & Biology, 2011) can be followed below.

What all share (test): Thermal stability shift assay
Assay type in all cases: binding

The target in assay [1] is YSK1 (Homo sapiens, UniProt O00506). The following applies: read-out: Tm shift YSK1. In short, it runs like this:
(§1)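 DSF read-out: SyproOrange fluorescence (1:1000) during thermal unfolding of 2 μM kinase with 10 μM compound. Buffer 10 mM HEPES pH 7.5, 500 mM NaCl; run on a real-time PCR machine.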

For assay [2], the target named is T1, PCTAIRE1 (Homo sapiens, UniProt Q00536).
T1 construct: purchased in-house (SGC Oxford thermal shift panel)
T1 sequence (Q00536 whole entry): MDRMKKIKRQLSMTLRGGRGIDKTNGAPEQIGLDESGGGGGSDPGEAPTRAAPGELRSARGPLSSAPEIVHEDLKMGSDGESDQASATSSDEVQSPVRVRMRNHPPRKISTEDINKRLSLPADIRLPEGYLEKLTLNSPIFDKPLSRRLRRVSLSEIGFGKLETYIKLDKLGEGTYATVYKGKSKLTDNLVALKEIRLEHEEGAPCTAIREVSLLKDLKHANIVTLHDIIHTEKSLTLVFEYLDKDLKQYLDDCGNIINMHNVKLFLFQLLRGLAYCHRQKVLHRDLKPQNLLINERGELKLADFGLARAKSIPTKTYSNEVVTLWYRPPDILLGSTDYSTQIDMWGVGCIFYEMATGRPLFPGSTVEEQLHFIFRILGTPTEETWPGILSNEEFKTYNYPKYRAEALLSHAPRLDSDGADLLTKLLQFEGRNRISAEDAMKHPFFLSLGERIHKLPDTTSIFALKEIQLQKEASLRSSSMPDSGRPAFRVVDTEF
Particulars: read-out: Tm shift PCTAIRE1. In outline:
as §1

In assay [3] the target is T2, DMPK1 (Homo sapiens, UniProt Q09013).
T2 construct: purchased in-house (SGC Oxford thermal shift panel)
T2 sequence (Q09013 1-629): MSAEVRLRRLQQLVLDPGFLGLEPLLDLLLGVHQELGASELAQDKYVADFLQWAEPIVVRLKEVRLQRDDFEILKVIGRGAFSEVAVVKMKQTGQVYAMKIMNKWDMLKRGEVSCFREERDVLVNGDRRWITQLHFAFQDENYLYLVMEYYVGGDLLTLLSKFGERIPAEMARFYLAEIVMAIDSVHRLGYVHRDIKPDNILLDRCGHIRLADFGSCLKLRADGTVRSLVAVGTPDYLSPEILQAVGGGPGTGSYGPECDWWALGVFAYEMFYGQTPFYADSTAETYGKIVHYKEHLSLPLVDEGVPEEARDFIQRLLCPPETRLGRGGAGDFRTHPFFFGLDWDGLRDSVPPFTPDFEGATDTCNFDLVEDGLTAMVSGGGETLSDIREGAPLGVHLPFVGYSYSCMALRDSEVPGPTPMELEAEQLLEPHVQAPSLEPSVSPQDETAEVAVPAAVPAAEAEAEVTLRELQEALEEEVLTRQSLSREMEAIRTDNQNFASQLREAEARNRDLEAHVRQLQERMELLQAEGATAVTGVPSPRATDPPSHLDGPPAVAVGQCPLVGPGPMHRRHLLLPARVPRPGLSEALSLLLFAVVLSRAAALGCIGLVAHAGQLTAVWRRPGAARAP
Particulars: read-out: Tm shift DMPK1. In outline:
as §1

Assay [4] addresses SLK (Homo sapiens, UniProt Q9H2G2). Particulars: read-out: Tm shift SLK. In short, it runs like this: as §1
The target of assay [5] is T3, MAP2K6 (Homo sapiens, UniProt P52564).
T3 construct: purchased in-house (SGC Oxford thermal shift panel)
T3 sequence (P52564 1-334): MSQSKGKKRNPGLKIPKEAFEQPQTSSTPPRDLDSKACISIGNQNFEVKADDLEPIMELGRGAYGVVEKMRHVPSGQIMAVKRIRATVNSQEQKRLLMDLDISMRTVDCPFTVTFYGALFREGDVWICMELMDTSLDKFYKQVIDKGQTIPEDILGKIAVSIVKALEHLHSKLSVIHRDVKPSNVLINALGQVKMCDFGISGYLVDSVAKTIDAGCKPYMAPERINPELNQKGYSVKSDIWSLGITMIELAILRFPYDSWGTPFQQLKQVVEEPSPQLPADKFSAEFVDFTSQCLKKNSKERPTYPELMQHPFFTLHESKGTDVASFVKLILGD
The following applies: read-out: Tm shift MAP2K6. In short, it runs like this:
as §1

Assay [6] has as its target ACTR2 (Homo sapiens, UniProt P27037). Particulars: read-out: Tm shift ACTR2. In outline:
as §1

Assay [7] has as its target CaMK2a (Homo sapiens, UniProt Q9UQM7). The following applies: read-out: Tm shift CaMK2a. In short, it runs like this: as §1
The target in assay [8] is T4, DRAK1 (Homo sapiens, UniProt Q9UEE5).
T4 construct: purchased in-house (SGC Oxford thermal shift panel)
T4 sequence (Q9UEE5 1-414): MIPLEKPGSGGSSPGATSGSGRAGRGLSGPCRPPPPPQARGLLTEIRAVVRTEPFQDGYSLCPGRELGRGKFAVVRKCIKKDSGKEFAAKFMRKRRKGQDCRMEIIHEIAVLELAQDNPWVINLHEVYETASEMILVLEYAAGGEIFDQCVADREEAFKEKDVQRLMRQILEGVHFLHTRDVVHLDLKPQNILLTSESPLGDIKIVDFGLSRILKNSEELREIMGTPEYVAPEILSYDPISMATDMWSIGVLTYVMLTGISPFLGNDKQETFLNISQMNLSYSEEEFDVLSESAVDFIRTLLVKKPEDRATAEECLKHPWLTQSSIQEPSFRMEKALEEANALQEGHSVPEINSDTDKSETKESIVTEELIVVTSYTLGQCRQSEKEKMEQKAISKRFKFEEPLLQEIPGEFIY
The following applies: read-out: Tm shift DRAK1. In outline: as §1

In assay [9] the target is CHK2 (Homo sapiens, UniProt O96017). Particulars: read-out: Tm shift CHK2. In outline: as §1
CHK2, sequence (O96017 whole entry): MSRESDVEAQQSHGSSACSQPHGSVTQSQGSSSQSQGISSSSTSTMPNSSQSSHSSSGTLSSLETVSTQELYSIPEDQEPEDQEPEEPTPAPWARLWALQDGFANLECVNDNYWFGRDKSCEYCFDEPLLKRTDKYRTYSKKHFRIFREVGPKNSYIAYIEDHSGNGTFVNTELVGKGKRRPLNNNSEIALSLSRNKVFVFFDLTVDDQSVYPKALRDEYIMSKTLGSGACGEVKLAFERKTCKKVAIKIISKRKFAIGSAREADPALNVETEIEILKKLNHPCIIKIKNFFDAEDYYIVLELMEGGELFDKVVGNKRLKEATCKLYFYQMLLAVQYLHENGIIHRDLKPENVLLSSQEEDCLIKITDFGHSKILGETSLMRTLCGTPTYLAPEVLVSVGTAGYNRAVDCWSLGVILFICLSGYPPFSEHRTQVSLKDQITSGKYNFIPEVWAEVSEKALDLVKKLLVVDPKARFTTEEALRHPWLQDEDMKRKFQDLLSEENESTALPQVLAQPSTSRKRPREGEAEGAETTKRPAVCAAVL
Assay [10] deals with T5, ALK2 (Homo sapiens, UniProt Q04771).
T5 sequence (Q04771 21-509): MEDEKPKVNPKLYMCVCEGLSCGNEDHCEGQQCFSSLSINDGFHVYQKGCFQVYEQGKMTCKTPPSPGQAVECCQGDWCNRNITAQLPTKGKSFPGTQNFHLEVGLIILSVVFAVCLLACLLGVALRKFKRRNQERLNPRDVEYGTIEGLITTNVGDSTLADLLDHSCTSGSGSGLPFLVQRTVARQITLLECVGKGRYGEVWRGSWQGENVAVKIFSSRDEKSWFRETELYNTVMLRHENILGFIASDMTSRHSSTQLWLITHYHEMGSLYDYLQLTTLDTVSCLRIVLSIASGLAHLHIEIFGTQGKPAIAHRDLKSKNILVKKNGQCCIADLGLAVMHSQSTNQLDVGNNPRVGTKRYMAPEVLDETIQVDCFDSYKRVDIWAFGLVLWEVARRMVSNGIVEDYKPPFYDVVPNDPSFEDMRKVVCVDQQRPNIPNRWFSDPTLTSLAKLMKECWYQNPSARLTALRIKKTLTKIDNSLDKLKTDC
Particulars: read-out: Tm shift ALK2. In short, it runs like this:
as §1

Assay [11] concerns the target T6, MSSK1 (Homo sapiens, UniProt Q9UPE1).
T6 construct: purchased in-house (SGC Oxford thermal shift panel)
The following applies: read-out: Tm shift MSSK1. In short, it runs like this: as §1

Like-named read-outs stand apart in the source and are kept apart here.

YSK1, sequence (O00506 whole entry): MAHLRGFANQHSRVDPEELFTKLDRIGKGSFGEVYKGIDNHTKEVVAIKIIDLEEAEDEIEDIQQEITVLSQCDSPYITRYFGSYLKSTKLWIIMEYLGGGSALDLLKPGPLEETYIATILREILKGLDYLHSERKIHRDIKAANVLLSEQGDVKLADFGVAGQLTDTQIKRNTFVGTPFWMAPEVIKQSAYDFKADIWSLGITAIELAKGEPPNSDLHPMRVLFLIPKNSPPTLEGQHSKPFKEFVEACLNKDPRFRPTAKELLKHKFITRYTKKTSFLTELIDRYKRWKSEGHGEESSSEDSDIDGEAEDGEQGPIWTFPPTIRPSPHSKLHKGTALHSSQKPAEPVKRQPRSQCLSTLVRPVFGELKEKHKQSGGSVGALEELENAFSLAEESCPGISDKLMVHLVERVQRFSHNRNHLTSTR
CaMK2a, sequence (Q9UQM7 whole entry): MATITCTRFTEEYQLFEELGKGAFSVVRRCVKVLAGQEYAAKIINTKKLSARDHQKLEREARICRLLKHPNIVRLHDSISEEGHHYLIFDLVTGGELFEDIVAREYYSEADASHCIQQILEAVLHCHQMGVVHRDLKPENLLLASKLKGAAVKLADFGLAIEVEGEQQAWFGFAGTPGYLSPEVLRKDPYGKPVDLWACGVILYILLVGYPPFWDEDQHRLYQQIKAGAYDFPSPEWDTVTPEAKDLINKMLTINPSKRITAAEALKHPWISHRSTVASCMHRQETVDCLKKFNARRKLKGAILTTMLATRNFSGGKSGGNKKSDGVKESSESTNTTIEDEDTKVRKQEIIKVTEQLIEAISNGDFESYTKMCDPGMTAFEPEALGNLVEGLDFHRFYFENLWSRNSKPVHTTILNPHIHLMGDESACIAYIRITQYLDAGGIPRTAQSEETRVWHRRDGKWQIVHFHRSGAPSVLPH
SLK, sequence (Q9H2G2 whole entry): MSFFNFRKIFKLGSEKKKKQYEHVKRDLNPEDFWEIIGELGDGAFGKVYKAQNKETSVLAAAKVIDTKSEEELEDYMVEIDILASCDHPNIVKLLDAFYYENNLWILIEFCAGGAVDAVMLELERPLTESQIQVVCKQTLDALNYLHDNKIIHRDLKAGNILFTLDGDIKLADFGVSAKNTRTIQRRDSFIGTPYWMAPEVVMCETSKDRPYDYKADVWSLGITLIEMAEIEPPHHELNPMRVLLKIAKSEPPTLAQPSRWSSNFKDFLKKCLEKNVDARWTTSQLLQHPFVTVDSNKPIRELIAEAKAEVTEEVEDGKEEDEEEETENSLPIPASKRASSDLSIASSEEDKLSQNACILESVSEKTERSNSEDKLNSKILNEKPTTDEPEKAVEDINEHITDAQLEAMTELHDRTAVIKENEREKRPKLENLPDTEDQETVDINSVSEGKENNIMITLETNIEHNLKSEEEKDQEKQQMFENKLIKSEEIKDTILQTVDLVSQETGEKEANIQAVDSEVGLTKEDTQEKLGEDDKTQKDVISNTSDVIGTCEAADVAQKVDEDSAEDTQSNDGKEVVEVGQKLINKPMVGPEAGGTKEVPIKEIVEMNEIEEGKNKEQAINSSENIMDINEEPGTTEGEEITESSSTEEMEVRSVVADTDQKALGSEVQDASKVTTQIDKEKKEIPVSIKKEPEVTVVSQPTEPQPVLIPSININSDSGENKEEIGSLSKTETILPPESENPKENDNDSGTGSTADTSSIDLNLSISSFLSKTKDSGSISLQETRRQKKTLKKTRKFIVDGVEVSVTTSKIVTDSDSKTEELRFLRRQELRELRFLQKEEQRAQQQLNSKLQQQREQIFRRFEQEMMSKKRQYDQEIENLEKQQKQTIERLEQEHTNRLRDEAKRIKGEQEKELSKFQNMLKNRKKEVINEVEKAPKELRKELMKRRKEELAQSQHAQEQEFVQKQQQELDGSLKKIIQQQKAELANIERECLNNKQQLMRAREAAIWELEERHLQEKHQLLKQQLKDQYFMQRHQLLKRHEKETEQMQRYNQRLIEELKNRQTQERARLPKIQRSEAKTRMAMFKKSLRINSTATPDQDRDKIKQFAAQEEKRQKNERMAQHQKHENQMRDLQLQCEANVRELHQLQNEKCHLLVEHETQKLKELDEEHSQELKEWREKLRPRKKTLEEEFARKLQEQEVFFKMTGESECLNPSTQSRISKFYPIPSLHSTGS
ACTR2, sequence (P27037 20-513): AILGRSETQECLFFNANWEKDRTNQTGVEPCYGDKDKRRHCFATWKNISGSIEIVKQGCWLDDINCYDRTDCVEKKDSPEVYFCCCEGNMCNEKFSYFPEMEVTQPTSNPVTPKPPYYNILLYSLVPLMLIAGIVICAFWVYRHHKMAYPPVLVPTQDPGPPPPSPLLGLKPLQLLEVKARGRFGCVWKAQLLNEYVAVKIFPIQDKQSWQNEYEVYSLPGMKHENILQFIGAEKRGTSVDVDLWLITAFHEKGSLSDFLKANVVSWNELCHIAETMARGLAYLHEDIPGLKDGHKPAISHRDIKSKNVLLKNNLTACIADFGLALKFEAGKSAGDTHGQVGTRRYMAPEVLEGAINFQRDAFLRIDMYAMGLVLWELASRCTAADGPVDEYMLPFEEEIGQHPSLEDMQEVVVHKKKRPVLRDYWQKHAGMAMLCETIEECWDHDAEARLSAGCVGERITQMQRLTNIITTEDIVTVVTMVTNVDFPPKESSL
T6 sequence (Q9UPE1 whole entry): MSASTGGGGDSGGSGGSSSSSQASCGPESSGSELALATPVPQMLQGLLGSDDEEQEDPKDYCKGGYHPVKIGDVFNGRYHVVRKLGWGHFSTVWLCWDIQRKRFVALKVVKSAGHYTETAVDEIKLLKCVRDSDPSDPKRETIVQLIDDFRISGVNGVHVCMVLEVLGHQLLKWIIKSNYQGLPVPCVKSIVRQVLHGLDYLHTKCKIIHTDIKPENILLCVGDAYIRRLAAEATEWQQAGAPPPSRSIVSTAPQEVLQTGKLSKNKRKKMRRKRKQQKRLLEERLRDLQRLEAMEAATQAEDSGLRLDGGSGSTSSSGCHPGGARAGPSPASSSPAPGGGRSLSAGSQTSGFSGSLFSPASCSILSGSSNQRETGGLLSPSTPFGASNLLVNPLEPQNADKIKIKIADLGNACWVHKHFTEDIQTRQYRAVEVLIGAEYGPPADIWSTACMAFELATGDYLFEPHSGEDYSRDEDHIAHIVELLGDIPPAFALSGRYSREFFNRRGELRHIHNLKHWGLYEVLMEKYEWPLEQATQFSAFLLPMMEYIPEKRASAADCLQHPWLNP

With `CCOC(=O)c1c(/C(C#N)=C\N)c2ccc(Cl)c(Cl)c2n1C` [KH-CB19, (E)-Ethyl 3-(2-Amino-1-Cyanovinyl)-6,7-Dichloro-1-Methyl-1H-Indole-2-Carboxylate], the ΔTm at 10 µM in [1] was -0.1 °C; in [2], 0.4 °C; in assay [3], -0.4 °C; in assay [4] it was 0 °C; in assay [5], 0.5 °C; in [6] it was 0.2 °C. Further, the ΔTm at 10 µM in [7] amounted to 0.5 °C; in assay [8] it was 2.5 °C; in [9] it was 0.4 °C; in [10] it was 0.5 °C; in assay [11] it was 0.2 °C.

As for `NC1=NC(=O)/C(=C2\CCNC(=O)c3[nH]c(Br)cc32)N1` [Hymenialdisine, hymenialdisine, reference compound], the ΔTm at 10 µM is 1.7 °C in [1] (inhibitor 10 μM); 0.7 °C in assay [2] (inhibitor 10 μM); 0.2 °C in assay [3] (inhibitor 10 μM); 2.1 °C in assay [4] (inhibitor 10 μM); 0.6 °C in assay [5] (inhibitor 10 μM); 0.7 °C in assay [6] (inhibitor 10 μM). Moreover, the ΔTm at 10 µM in assay [7] (inhibitor 10 μM) was 0.4 °C; in assay [8] (inhibitor 10 μM), 14.8 °C; in [9] (inhibitor 10 μM), 5.7 °C; in [10] (inhibitor 10 μM), 2.1 °C; in [11] (inhibitor 10 μM) it was 0.3 °C.

In the case of `CCOC(=O)c1c(C(C#N)=CN(C)C)c2ccc(Cl)c(Cl)c2n1C` (mixture of isomers) [compound 2, (E/Z)-Ethyl 6,7-Dichloro-3-[1-Cyano-2-(Dimethylamino)Vinyl]-1-Methyl-1H-Indole-2-Carboxylate], the ΔTm at 10 µM is 0.6 °C in [1] (inhibitor 10 μM); 0.4 °C in assay [2] (inhibitor 10 μM); -0.3 °C in [3] (inhibitor 10 μM); -0.7 °C in assay [4] (inhibitor 10 μM); 0.4 °C in assay [5] (inhibitor 10 μM); 0.6 °C in assay [6] (inhibitor 10 μM). Further, the ΔTm at 10 µM in assay [7] (inhibitor 10 μM) was 1 °C; in [8] (inhibitor 10 μM), -0.2 °C; in [9] (inhibitor 10 μM) it was 0.3 °C; in [10] (inhibitor 10 μM), -0.5 °C; in assay [11] (inhibitor 10 μM), 0.3 °C.

Turning to `CCOC(=O)c1c(C(C#N)=CN)c2ccc(Cl)c(Cl)c2n1C` (mixture of isomers) [KH-CB20, (E/Z)-Ethyl 3-(2-Amino-1-Cyanovinyl)-6,7-Dichloro-1-Methyl-1H-Indole-2-Carboxylate], the ΔTm at 10 µM is 0.1 °C in assay [1]; 0.1 °C in assay [2]; -0.4 °C in assay [3]; 0.1 °C in [4]; 0.6 °C in assay [5]; 0.4 °C in assay [6]. Also, the ΔTm at 10 µM in assay [7] was 0.7 °C; in [8], 2.6 °C; in assay [9] it was 1 °C; in assay [10] it was 0.8 °C; in assay [11], 0.5 °C.

With `Cn1c2c(Cl)c(Cl)ccc2c2c(C#N)c[nH]c(=O)c21` [compound 3, 7,8-Dichloro-9-Methyl-1-Oxo-2,9-Dihydro-1H-Pyrido[3,4-b]Indole-4-Carbonitrile], the ΔTm at 10 µM in assay [1] (inhibitor 10 μM) is 0.2 °C; in assay [2] (inhibitor 10 μM) it was 0.4 °C; in [3] (inhibitor 10 μM) it was 0.9 °C; in assay [4] (inhibitor 10 μM), -0.6 °C; in assay [5] (inhibitor 10 μM), 0.1 °C; in [6] (inhibitor 10 μM), 0.8 °C. The ΔTm at 10 µM in assay [7] (inhibitor 10 μM) is 0.5 °C; in assay [8] (inhibitor 10 μM) it was 1.7 °C; in [9] (inhibitor 10 μM), 0.5 °C; in [10] (inhibitor 10 μM) it was 0.5 °C; in [11] (inhibitor 10 μM), 0.3 °C.
